pEC50, pIC50: −log10 of the molar value. Like-named read-outs stand apart in the source and are kept apart here.
Columns and labels:
DNA-PK = target: T1, DNA-PK (Homo sapiens, UniProt P78527); test: DNA-PK Assay for Biochemical Enzymatic Inhibition (ADP Glo Kinase assay); settings: Table 1
T1 construct: purchased Invitrogen PR9107A
How it was run: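 Human DNA-PK (25 ng) preincubated 15 min with compounds (ten three-fold dilutions) in HEPES pH 7.5, MgCl2, KCl, calf thymus DNA buffer, then substrate 434.4 μM and ATP 64.4 μM (final) for 60 min at room temperature. ADP-Glo luminescence; percent inhibition fitted by four-parameter regression for IC50.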

[1] = target: T2, DNA-PK phosphorylation at Serine 2056 (Homo sapiens, UniProt P78527); test: Cellular Assay for Inhibition of DNA-PK Phosphorylation at Serine 2056 (FaDu cells, neocarzinostatin, sandwich ELISA); format: cell-based; settings: Table 1
T2 construct: host or cells: FaDu
How it was run: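 Readout was pSer2056 and total DNA-PK, measured by sandwich ELISA on protein-normalized lysates. Prior to lysis, compound was applied to FaDu cells for 1 h (0.3% DMSO), followed by 2 h of 1 μg/mL neocarzinostatin. IC50 values were fitted from log concentration versus % inhibition normalized to DMSO and NCS controls.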

[2] = Microsomal stability assay, mouse liver microsomes; settings: for microsomal CLint at 0.1 uM: male, CD-1, mouse, liver microsomes, pH 7.4, Microsomal Stability Mouse Clint, 0.1 mg/mL microsomes, 0.1 uM compound
[3] = target: T3, pDNA-PK ser2056 induction in HCT116 spheroids (Homo sapiens, UniProt P78527); test: Multicellular tumour spheroid + radiation, pDNA-PK inhibition, HCT116; format: cell-based; settings: 20 Gy
T3 construct: endogenous in cells; host or cells: HCT116 multicellular tumour spheroids
How it was run: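 EC50 (μM) is concentration halving radiation-induced pDNA-PK ser2056, scored by fluorescent immunostaining of cryosections 2 h after 20 Gy. HCT116 tumour spheroids (~0.5 mm, stirred, 20% O2/5% CO2, 37 °C) exposed to serial dilutions from 10 or 5 μM to 3.5 nM starting 1 h before irradiation.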

[4] = Example 7, spheroid, cell line HCT115 [sic], 20% O2, read-out: EC50 (pDNA-PK inhibition, immunohistochemical endpoint)
[5] = Example 8, spheroid, read-out: Cell line: HCT116 Immunohistochemical endpoint pDNA-PK inhibition EC50
[6] = Example 9 Study 2, 20% O2, read-out: Spheroid Cell line: HCT116 Immunohistochemical endpoint pDNA-PK inhibition EC50

| Structure (SMILES) | pIC50 (DNA-PK) | pIC50 [1] | Microsomal Stability (mouse) % rem. 60 min [2] | microsomal CLint at 0.1 uM [2] | pEC50 [3, 4] | pEC50 [3, 5] | pEC50 [3, 6] |
| --- | --- | --- | --- | --- | --- | --- | --- |
| COc1cnc(N[C@H]2CC[C@@H](Oc3nc(N4CCOCC4)cc4ncccc34)CC2)nc1 [Compound 20c, 5-Methoxy-N-((1s,4s)-4-((7-morpholino-1,6-naphthyridin-5-yl)oxy)cyclohexyl)pyrimidin-2-amine] | 8.00 to 9.00 | > 7.00 | E (% remaining = 0-25%) | > 116 µL/min/mg | 6.00 to 6.30 | 6.00 to 6.30 | 6.00 to 6.30 |
| c1cncc(N[C@H]2CC[C@@H](Oc3nc(N4CCOCC4)cc4ncccc34)CC2)c1 [Compound 26, N-((1s,4s)-4-((7-morpholino-1,6-naphthyridin-5-yl)oxy)cyclohexyl)pyridin-3-amine] | 9.00 to 9.30 | 6.00 to 7.00 | E (% remaining = 0-25%) | > 116 µL/min/mg | 5.00 to 6.00 | 5.00 to 6.00 | 5.00 to 6.00 |
| c1cnnc(N[C@H]2CC[C@@H](Oc3nc(N4CCOCC4)cc4ncccc34)CC2)c1 [Compound 29, N-((1s,4s)-4-((7-morpholino-1,6-naphthyridin-5-yl)oxy)cyclohexyl)pyridazin-3-amine] | > 9.30 | > 7.00 | E (% remaining = 0-25%) | > 116 µL/min/mg | 6.00 to 6.30 |  | 6.00 to 6.30 |
| O=C(N[C@H]1CC[C@@H](Oc2nc(N3CCOCC3)cc3ncccc23)CC1)C1CC1 [Compound 108, N-((1s,4s)-4-((7-Morpholino-1,6-naphthyridin-5-yl)oxy)cyclohexyl)cyclopropanecarboxamide] | 8.00 to 9.00 | 6.00 to 7.00 | E (% remaining = 0-25%) | > 116 µL/min/mg | 5.00 to 6.00 | 5.00 to 6.00 | 5.00 to 6.00 |
| O=C(N[C@H]1CC[C@@H](Oc2nc(N3CCOCC3)cc3ncccc23)CC1)C1(O)CC1 [Compound 109, 1-Hydroxy-N-((1s,4s)-4-((7-morpholino-1,6-naphthyridin-5-yl)oxy)cyclohexyl)cyclopropane-1-carboxamide] | 8.00 to 9.00 | 6.00 to 7.00 | E (% remaining = 0-25%) | > 116 µL/min/mg | 4.00 to 5.00 | 4.00 to 5.00 | 4.00 to 5.00 |
| O=C(N[C@H]1CC[C@@H](Oc2nc(N3CCOCC3)cc3ncccc23)CC1)c1ccccn1 [Compound 114, N-((1s,4s)-4-((7-morpholino-1,6-naphthyridin-5-yl)oxy)cyclohexyl)picolinamide] | 9.00 to 9.30 | 6.00 to 7.00 | E (% remaining = 0-25%) | > 116 µL/min/mg | 5.00 to 6.00 |  | 5.00 to 6.00 |
| O=C(N[C@H]1CC[C@@H](Oc2nc(N3CCOCC3)cc3ncccc23)CC1)c1ccc(Cl)nc1 [Compound 116, 6-chloro-N-((1s,4s)-4-((7-morpholino-1,6-naphthyridin-5-yl)oxy)cyclohexyl)nicotinamide] | 9.00 to 9.30 | 6.00 to 7.00 | F (% remaining = 25-50%) | > 116 µL/min/mg | 5.00 to 6.00 |  | 5.00 to 6.00 |
| O=C(N[C@H]1CC[C@@H](Oc2nc(N3CCOCC3)cc3ncccc23)CC1)c1cnccn1 [Compound 119, N-((1s,4s)-4-((7-morpholino-1,6-naphthyridin-5-yl)oxy)cyclohexyl)pyrazine-2-carboxamide] | 9.00 to 9.30 | 6.00 to 7.00 | E (% remaining = 0-25%) | > 116 µL/min/mg | 5.00 to 6.00 |  | 5.00 to 6.00 |
| O=C(N[C@H]1CC[C@@H](Oc2nc(N3CCOCC3)cc3ncccc23)CC1)c1ncc(Cl)cn1 [Compound 124, 5-chloro-N-((1s,4s)-4-((7-morpholino-1,6-naphthyridin-5-yl)oxy)cyclohexyl)pyrimidine-2-carboxamide] | 9.00 to 9.30 | 6.00 to 7.00 | F (% remaining = 25-50%) | > 116 µL/min/mg | 5.00 to 6.00 |  | 5.00 to 6.00 |
| Cc1ccnc(C(=O)N[C@H]2CC[C@@H](Oc3nc(N4CCOCC4)cc4ncccc34)CC2)n1 [Compound 127] | 9.00 to 9.30 | 6.00 to 7.00 | F (% remaining = 25-50%) | > 116 µL/min/mg | 5.00 to 6.00 |  | 5.00 to 6.00 |
| Cc1cnc(C(=O)N[C@H]2CC[C@@H](Oc3nc(N4CCOCC4)cc4ncccc34)CC2)nc1 [Compound 128, 5-methyl-N-((1s,4s)-4-((7-morpholino-1,6-naphthyridin-5-yl)oxy)cyclohexyl)pyrimidine-2-carboxamide] | 9.00 to 9.30 | 6.00 to 7.00 | F (% remaining = 25-50%) | > 116 µL/min/mg | 5.00 to 6.00 |  | 5.00 to 6.00 |
| O=C(N[C@H]1CC[C@@H](Oc2nc(N3CCOCC3)cc3ncccc23)CC1)n1cccn1 [Compound 136, N-((1s,4s)-4-((7-morpholino-1,6-naphthyridin-5-yl)oxy)cyclohexyl)-1H-pyrazole-1-carboxamide] | 9.00 to 9.30 | 6.00 to 7.00 | E (% remaining = 0-25%) | > 116 µL/min/mg | 5.00 to 6.00 |  | 5.00 to 6.00 |
| O=C(N[C@H]1CC[C@@H](Oc2nc(N3CCOCC3)cc3ncccc23)CC1)c1cc[nH]n1 [Compound 138, N-((1s,4s)-4-((7-morpholino-1,6-naphthyridin-5-yl)oxy)cyclohexyl)-1H-pyrazole-3-carboxamide] | 9.00 to 9.30 | 6.00 to 7.00 | E (% remaining = 0-25%) | > 116 µL/min/mg | 6.00 to 6.30 |  | 6.00 to 6.30 |
| O=C(N[C@H]1CC[C@@H](Oc2nc(N3CCOCC3)cc3ncccc23)CC1)c1scnc1Cl [Compound 139, 4-chloro-N-((1s,4s)-4-((7-morpholino-1,6-naphthyridin-5-yl)oxy)cyclohexyl)thiazole-5-carboxamide] | 8.00 to 9.00 | 6.00 to 7.00 | G (% remaining = 50-75%) | < 116 µL/min/mg | 4.00 to 5.00 |  | 4.00 to 5.00 |
| O=C(N[C@H]1CC[C@@H](Oc2nc(N3CCOCC3)cc3ncccc23)CC1)c1ncc[nH]1 [Compound 143, N-((1s,4s)-4-((7-morpholino-1,6-naphthyridin-5-yl)oxy)cyclohexyl)-1H-imidazole-2-carboxamide] | > 9.30 | > 7.00 | E (% remaining = 0-25%) | > 116 µL/min/mg | 6.00 to 6.30 |  | 6.00 to 6.30 |
| O=C(N[C@H]1CC[C@@H](Oc2nc(N3CCOCC3)cc3ncccc23)CC1)c1ccc[nH]1 [Compound 145] | 9.00 to 9.30 | > 7.00 | E (% remaining = 0-25%) | > 116 µL/min/mg | 6.30 to 8.00 |  | 6.30 to 8.00 |
| Nc1cnc2cc(N3CCOCC3)nc(O[C@H]3CC[C@@H](Nc4ncccn4)CC3)c2c1 [Compound 184, 7-morpholino-5-(((1s,4s)-4-(pyrimidin-2-ylamino)cyclohexyl)oxy)-1,6-naphthyridin-3-amine] | > 9.30 | > 7.00 | E (% remaining = 0-25%) | > 116 µL/min/mg | 5.00 to 6.00 |  | 5.00 to 6.00 |
| COc1cnc(N[C@H]2CC[C@@H](Oc3nc(N4CCOCC4)cc4ncc(N)cc34)CC2)nc1 [Compound 202, 5-(((1s,4s)-4-((5-methoxypyrimidin-2-yl)amino)cyclohexyl)oxy)-7-morpholino-1,6-naphthyridin-3-amine] | > 9.30 | > 7.00 | E (% remaining = 0-25%) | > 116 µL/min/mg | 5.00 to 6.00 |  | 5.00 to 6.00 |
